# Earlier results as cited in patent US20200046831A1, “NANOEMULSION COMPRISING IMIDAZOQUINOLINE-BASED MATERIAL AND USE THEREOF” (DANDI BIOSCIENCE INC., priority 2017, published 2020).
smiles,measurement,value
"CC(C)Cn1cnc2c(N)nc3ccccc3c21 [imiqimod (R837), imiquimod]",solubility in organic solvents,not dissolved in most organic solvents except for DMSO
